Data reported in PubChem BioAssay (NCI).
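Assay format: 96-well plates, 48-hour exposure. GI50 = concentration required for 50% inhibition of growth. TGI marks complete inhibition of growth.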

Tests used:
Test in all cases: inhibition of tumour cell growth, NCI panel, 48 h
[1] = test system: UACC-62 melanoma
[2] = test system: SF-295 CNS
[3] = test system: LOX IMVI melanoma
[4] = test system: HCC-2998 colon
[5] = test system: HS 578T breast
[6] = test system: CCRF-CEM leukemia
[7] = test system: U251 CNS

| SMILES | GI50 [1] [µM] | TGI [1] [µM] | GI50 [2] [µM] | TGI [2] [µM] | GI50 [3] [µM] | TGI [3] [µM] | GI50 [4] [µM] | TGI [4] [µM] | GI50 [5] [µM] | TGI [5] [µM] | GI50 [6] [µM] | TGI [6] [µM] | GI50 [7] [µM] | TGI [7] [µM] |
| --- | --- | --- | --- | --- | --- | --- | --- | --- | --- | --- | --- | --- | --- | --- |
| COc1cccc2c(=O)c3c(sc12)c(N1CCNCC1)nc1ccccc13 | 1.73 | 3.19 | 1.82 | 3.37 | 1.56 | 3.01 | 1.7 | 3.26 | 1.7 | 3.71 |  |  |  |  |
| CN(CCC#N)c1ccc(/C=C(\C#N)c2ccc(Br)cc2)cc1 |  |  |  |  |  |  |  |  | > 100 | > 100 |  |  |  |  |
| COc1ccc(C(=O)COc2ccc(/C=C3\COc4ccc(OC)cc4C3=O)cc2)cc1 | 48.9 | > 100 | 14.5 | 38.1 | 6.59 | 24.2 |  |  | 10.7 | 34.2 | 2.86 | 10.2 | 13.4 | 31.2 |
| O=C1CC2c3ccccc3CCC2c2ccccc21 (configuration not stated) |  | 69.6 |  | 49.7 |  | 34.3 |  | 50.5 |  | 53.4 |  |  |  | > 100 |
| C=C1CCC(CC[C@@H]2CC[C@]3(OC2)O[C@@]2(O)CC[C@]3(C)OC2(C)C)C(C)(C)[C@H]1C/C=C1/C(=O)OC[C@@H]1O (some centres not stated) |  | 3.8 |  | 10.5 |  | 1.88 |  | 10.2 |  | 28.8 |  | 2.32 |  | 6.29 |
| Br[C](Br)(Br)[Hg][c]1ccccc1 | 16.4 | 38.2 | 15.6 | 30 | 9.71 | 23.2 | 14.4 | 27.7 | 23.2 | 66.2 | 1.49 | 9.13 | 13.9 | 27.6 |
| O=S(=O)(Nc1cc(Sc2cccc3cccnc23)c(O)c2ccccc12)c1ccccc1 | 1.49 | 4.33 | 2.84 | 15 | 0.522 | 10.1 | 4.77 | 19.1 | 3.27 | 79.3 | 0.426 | 16 | 0.78 | 24.2 |
| CCCCON(OC(=O)c1ccc2ccc3cccc4ccc1c2c34)C(C)=O | 21.5 | 47.2 | 30.3 | > 100 | 16.9 | 33.1 | 38.5 | > 100 | 18.8 | 66.6 | 16.3 | 41.4 | 18.1 | 36.5 |
| O=C(O)C1C(Br)(c2ccccc2)C1(Br)c1ccccc1 (configuration not stated) |  | 64.3 |  | > 100 |  | > 100 |  | 53.7 |  | > 100 |  |  |  | > 100 |
| CC(=O)C(=CN1CCN(C(=O)c2ccco2)C1=S)C(C)=O | 5.52 | 19.1 | 21.7 | 52.6 | 2.12 | 4.62 |  |  |  |  |  |  | 4.84 | 23.6 |
| ClCC[N+]12CC[N+](CCCl)(CC1)C2 |  | > 100 |  | > 100 |  | > 100 |  | > 100 |  | > 100 |  | > 100 |  | > 100 |
| C[C@H](O)C(=O)N1CCC(CCn2c(Sc3cc4c(cc3Br)OCO4)nc3c(N)ncnc32)CC1 | 0.862 |  | 0.741 | > 22.8 | 0.596 | 6.9 | 0.867 | > 43.3 |  | > 100 | 0.49 | > 100 | 2.14 | > 100 |
